Assay in all cases: fluorescent cephalosporin
What all share (type): biochemical

In one test the target is VIM-2 (Pseudomonas aeruginosa, UniProt Q9K2N0). The settings on record: read-out: VIM-2 IC50; […] min pre-incubation, FC5 substrate, HEPES.
The target of a further test is IMP-28 (Klebsiella oxytoca, UniProt G4WB26). Particulars: read-out: IMP-28 IC50; […] min pre-incubation, FC5 substrate, HEPES.
Another test addresses NDM-1 (Klebsiella pneumoniae, UniProt C7C422).

Sequence of IMP-28 (G4WB26 20-246): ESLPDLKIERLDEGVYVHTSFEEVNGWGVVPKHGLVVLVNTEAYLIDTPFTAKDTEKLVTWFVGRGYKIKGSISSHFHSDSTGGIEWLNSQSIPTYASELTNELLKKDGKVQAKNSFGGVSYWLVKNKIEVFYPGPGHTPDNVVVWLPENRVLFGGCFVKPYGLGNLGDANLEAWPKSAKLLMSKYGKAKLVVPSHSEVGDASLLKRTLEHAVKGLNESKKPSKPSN
Sequence of NDM-1 (C7C422 29-270, looked up): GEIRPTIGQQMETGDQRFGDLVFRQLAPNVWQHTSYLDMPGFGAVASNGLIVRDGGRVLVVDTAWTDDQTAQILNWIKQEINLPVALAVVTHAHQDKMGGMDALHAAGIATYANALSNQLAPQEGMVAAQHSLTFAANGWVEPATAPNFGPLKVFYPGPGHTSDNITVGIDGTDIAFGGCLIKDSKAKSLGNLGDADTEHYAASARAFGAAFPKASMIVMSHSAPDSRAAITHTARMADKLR

Turning to `Sc1cccc2cccnc12` [8-TQ], the concentration for half-maximal inhibition (IC50) on VIM-2 was determined as 4.2 ± 1 µM; at IMP-28, 4.2 ± 0.11 µM; against NDM-1 it was 2.99 ± 0.58 µM.
As to `O=C(O)c1cccc(C(=O)O)n1` [DPA], the 50% inhibitory concentration (IC50) came to 4.34 ± 0.67 µM at VIM-2 and 9.65 ± 0.62 µM on IMP-28.
Regarding `O=C(Cc1ccccc1)N[C@@H]1C(=O)N2C(C(=O)O)=C(CSc3cccc4cccnc34)CS[C@H]12` [compound 6], the IC50 at VIM-2 was 3.64 ± 0.27 µM; on IMP-28, 10.3 ± 0.22 µM.
For `O=C(Cc1ccccc1)N[C@@H]1C(=O)N2C(C(=O)O)=C(CSc3cccc4cccnc34)C[S+]([O-])[C@H]12` (stereo partly shown) [compound 7], the figures for the IC50 at VIM-2, at IMP-28 and against NDM-1 were 6.35 ± 0.56 µM, 71.9 ± 3.05 µM and 2.18 ± 0.14 µM, respectively.
On the same counts, the results for `O=C(Cc1ccccc1)N[C@@H]1C(=O)N2C(C(=O)O)=C(CSc3cccc4cccnc34)CS(=O)(=O)[C@H]12` [compound 8] are 4.17 ± 0.65 µM, 46.2 ± 3.13 µM and 8.47 ± 1.02 µM.
On the same counts, the results for `O=C(Cc1ccccc1)N[C@@H]1C(=O)N2C(C(=O)O)=C(COC(=O)c3cccc(C(=O)O)n3)CS[C@H]12` [compound 13] are 1.87 ± 0.1 µM, 7.39 ± 0.1 µM and 2.13 ± 0.07 µM.
As for `O=C(Cc1ccccc1)N[C@@H]1C(=O)N2C(C(=O)O)=C(COC(=O)c3cccc(C(=O)O)n3)C[S+]([O-])[C@H]12` (stereo partly shown) [compound 14], the IC50 at VIM-2 worked out at 0.756 ± 0.056 µM; at IMP-28, 46.7 ± 2.76 µM; on NDM-1, 0.299 ± 0.005 µM.
On the same counts, the results for `O=C(Cc1ccccc1)N[C@@H]1C(=O)N2C(C(=O)O)=C(COC(=O)c3cccc(C(=O)O)n3)CS(=O)(=O)[C@H]12` [compound 15] are 10.8 ± 0.6 µM, 61.9 ± 1.82 µM and 18.8 ± 1.22 µM.

A word on the IC50: it is the concentration that gives 50% inhibition.

For the origin of these results see publication PMC7986777 (Chemistry (Weinheim an Der Bergstrasse, Germany), 2021).
